The source of these data is ChEMBL document CHEMBL3860089, “Design, synthesis, and biological evaluation of α-hydroxyacyl-AMS inhibitors of amino acid adenylation enzymes” (Bioorg Med Chem Lett, 2016).

Structures are written as SMILES.

For data set [1], the target named is T1, Yersiniabactin biosynthetic protein (Yersinia pestis, UniProt A0A2S9PH42).
Data set [2] in a line: Inhibition of aminoacyl tRNA synthetase in T7 coupled rabbit reticulocyte lysate assessed as reduction in transcription/translation of luciferase template DNA propagated in Escherichia coli DH5alpha after 90 mins. On the set-up: species or system Oryctolagus cuniculus.
The target of data set [3] is T1, Yersiniabactin biosynthetic protein. To be noted: read-out: Ki(app).
A short description of data set [4]: Drug uptake in Escherichia coli ATCC 25922 at 100 uM by LC-MS/Ms analysis. It is filed as ADME. To be noted: escherichia coli atcc 25922, 100 µM.
Data set [5] can be described thus: Drug uptake in Mycobacterium smegmatis ATCC 700084 at 100 uM by LC-MS/Ms analysis. The class given is ADME. The conditions noted are these: mycolicibacterium smegmatis.
Data set [6] in a line: Drug uptake in Bacillus subtilis ATCC 6051 at 100 uM by LC-MS/Ms analysis. It is filed as ADME.

T1 sequence (A0A2S9PH42 whole entry): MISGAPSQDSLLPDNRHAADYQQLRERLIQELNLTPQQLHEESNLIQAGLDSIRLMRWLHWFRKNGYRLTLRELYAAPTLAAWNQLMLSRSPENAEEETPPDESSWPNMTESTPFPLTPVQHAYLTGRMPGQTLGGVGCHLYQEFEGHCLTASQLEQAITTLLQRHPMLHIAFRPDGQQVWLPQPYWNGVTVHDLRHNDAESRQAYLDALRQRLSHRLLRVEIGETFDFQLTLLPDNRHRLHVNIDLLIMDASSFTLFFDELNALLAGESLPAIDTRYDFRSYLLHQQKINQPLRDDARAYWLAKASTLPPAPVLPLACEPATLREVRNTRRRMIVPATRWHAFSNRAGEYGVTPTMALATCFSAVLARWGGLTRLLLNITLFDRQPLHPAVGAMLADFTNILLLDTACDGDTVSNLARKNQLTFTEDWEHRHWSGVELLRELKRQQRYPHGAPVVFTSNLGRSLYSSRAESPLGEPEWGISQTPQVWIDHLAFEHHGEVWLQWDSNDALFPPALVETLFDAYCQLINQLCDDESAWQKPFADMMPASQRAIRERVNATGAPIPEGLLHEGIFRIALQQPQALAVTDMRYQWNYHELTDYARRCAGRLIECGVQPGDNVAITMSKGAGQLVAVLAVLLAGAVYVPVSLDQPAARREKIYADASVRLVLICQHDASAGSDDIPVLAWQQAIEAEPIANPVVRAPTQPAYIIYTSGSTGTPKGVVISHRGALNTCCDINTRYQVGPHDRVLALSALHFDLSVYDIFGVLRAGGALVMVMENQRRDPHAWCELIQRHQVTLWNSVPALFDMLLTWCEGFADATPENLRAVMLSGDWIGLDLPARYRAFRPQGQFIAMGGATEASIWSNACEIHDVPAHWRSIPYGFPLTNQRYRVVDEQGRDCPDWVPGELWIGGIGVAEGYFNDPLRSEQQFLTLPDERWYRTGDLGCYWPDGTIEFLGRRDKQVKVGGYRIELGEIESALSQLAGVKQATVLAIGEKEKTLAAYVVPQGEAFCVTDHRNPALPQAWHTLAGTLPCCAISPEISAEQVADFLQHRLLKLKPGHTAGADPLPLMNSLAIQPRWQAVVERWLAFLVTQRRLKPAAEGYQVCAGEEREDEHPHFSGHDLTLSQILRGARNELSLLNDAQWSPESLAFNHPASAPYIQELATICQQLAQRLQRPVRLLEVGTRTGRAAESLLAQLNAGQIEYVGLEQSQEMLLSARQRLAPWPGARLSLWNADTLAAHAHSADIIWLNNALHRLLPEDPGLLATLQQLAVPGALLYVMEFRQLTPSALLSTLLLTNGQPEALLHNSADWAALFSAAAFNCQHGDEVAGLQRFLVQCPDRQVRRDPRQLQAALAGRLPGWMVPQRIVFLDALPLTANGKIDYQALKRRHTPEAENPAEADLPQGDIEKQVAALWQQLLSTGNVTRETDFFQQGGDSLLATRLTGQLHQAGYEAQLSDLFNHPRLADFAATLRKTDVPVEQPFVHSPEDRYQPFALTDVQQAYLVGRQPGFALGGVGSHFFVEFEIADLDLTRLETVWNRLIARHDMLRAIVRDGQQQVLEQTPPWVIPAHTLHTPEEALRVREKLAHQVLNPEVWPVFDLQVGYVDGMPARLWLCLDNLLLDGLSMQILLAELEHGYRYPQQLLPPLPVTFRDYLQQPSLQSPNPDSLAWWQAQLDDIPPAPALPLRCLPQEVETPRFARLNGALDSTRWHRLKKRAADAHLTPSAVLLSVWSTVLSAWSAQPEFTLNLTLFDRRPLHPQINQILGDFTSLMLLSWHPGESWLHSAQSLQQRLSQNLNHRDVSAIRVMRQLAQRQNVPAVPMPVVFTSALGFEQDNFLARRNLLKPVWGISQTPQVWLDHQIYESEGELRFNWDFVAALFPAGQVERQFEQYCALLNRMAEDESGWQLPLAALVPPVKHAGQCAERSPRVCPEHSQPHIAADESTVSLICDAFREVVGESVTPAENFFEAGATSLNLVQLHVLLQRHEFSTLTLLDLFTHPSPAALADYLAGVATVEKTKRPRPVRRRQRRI

Regarding `Nc1ncnc2c1ncn2[C@@H]1O[C@H](COS(=O)(=O)NC(=O)[C@@H](O)CS)[C@@H](O)[C@H]1O`, the half-inhibitory concentration (IC50) in data set [1] was 16.5 µM; in data set [2], 222 µM.

Consider `Nc1ncnc2c1ncn2[C@@H]1O[C@H](COS(=O)(=O)NC(=O)[C@@H](N)CS)[C@@H](O)[C@H]1O`, for which the figures for the IC50 in data set [1] and in data set [2] were 0.04 µM and 3.27 µM, respectively. Also, the Ki in data set [3] was found to be 0.24 µM.

Turning to `C[C@H](N)C(=O)NS(=O)(=O)OC[C@H]1O[C@@H](n2cnc3c(N)ncnc32)[C@H](O)[C@@H]1O` [ALASA], the Drug uptake result in data set [4] (BLD = below limit of detection), in data set [5] (BLD = below limit of detection) and in data set [6] (BLD = below limit of detection) was “Bld” in each case. For the same compound, the IC50 in data set [1] was 1.15 µM; in data set [2], 0.118 to 0.16 µM. In addition, the Ki in data set [3] came out at 2.5 µM.

In the case of `Nc1ncnc2c1nc1n2[C@@H]2O[C@H](COS(=O)(=O)NC(=O)[C@@H](N)CCC1)[C@@H](O)[C@H]2O`, the IC50 is 0.34 µM in data set [1] and above 250 µM in data set [2]. Further, in data set [3], the Ki was 1.7 µM.

Regarding `Nc1ncnc2c1nc1n2[C@@H]2O[C@H](COS(=O)(=O)NC(=O)[C@@H](O)CCC1)[C@@H](O)[C@H]2O`, the half-maximal inhibitory concentration (IC50) in data set [1] is above 1000 µM; in data set [2], above 250 µM.

In the case of `C[C@H](O)C(=O)NS(=O)(=O)OC[C@H]1O[C@@H](n2cnc3c(N)ncnc32)[C@H](O)[C@@H]1O`, the Drug uptake in data set [4], in data set [5] and in data set [6] was 28 to 53 µM throughout. The IC50 in data set [1] is above 1000 µM; in data set [2] it was 166 µM.
